This is an account of results in patent US6638973B2, “Taxane formulations” (FSU Research Foundation, Inc., priority 2000, dated 2003).

A value given as a limit tells only on which side of the number the result lay.

The first assay has as its system HCT116 cells. Briefly: In vitro cytotoxicity measured by the cell colony formation assay. The format is cell-based. The settings on record: HCT116 cells, colony formation, 72 h incubation with drug, colonies counted after 7 days; ID50 = drug concentration producing 50% inhibition of colony formation; read-out: IN VITRO ID 50 (nm) HCT116. The essentials: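 Colony-forming survival was scored 7 days after a 72 h, 37 °C compound exposure followed by washout into fresh medium.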
Take `CCNC(=O)O[C@H]1C(=O)[C@@]2(C)C([C@H](OC(=O)c3ccccc3)[C@]3(O)C[C@H](OC(=O)[C@H](O)[C@@H](NC(=O)OC(C)(C)C)c4ccccn4)C(C)=C1C3(C)C)[C@]1(OC(C)=O)CO[C@@H]1C[C@@H]2O` (some centres unmarked) [Compound 2600]: the IC50 was < 1 nM.
On the same count and under the same terms, in the case of `CCNC(=O)O[C@H]1C(=O)[C@@]2(C)C([C@H](OC(=O)c3ccccc3)[C@]3(O)C[C@H](OC(=O)[C@H](O)[C@@H](NC(=O)OC(C)(C)C)c4cccnc4)C(C)=C1C3(C)C)[C@]1(OC(C)=O)CO[C@@H]1C[C@@H]2O` (some centres unmarked) [Compound 2616] it was 27 nM; in that of `CCNC(=O)O[C@H]1C(=O)[C@@]2(C)C([C@H](OC(=O)c3ccccc3)[C@]3(O)C[C@H](OC(=O)[C@H](O)[C@@H](NC(=O)OC(C)(C)C)c4ccsc4)C(C)=C1C3(C)C)[C@]1(OC(C)=O)CO[C@@H]1C[C@@H]2O` (some centres unmarked) [Compound 2622], < 1 nM; in that of `CCNC(=O)O[C@H]1C(=O)[C@@]2(C)C([C@H](OC(=O)c3ccccc3)[C@]3(O)C[C@H](OC(=O)[C@H](O)[C@@H](NC(=O)OC(C)(C)C)C(C)C)C(C)=C1C3(C)C)[C@]1(OC(C)=O)CO[C@@H]1C[C@@H]2O` (some centres unmarked) [Compound 2633], < 10 nM.
For the compound `CCNC(=O)O[C@H]1C(=O)[C@@]2(C)C([C@H](OC(=O)c3ccccc3)[C@]3(O)C[C@H](OC(=O)[C@H](O)[C@@H](NC(=O)OC(C)(C)C)c4ccccc4)C(C)=C1C3(C)C)[C@]1(OC(C)=O)CO[C@@H]1C[C@@H]2O` (some centres unmarked) [Compound 2640], the IC50 was < 1 nM.

The same assay, now with this note: HCT116 colony formation; 72 h drug incubation, colonies counted after 7 days; Example 10, C-10 ester/C-7 hydroxy taxanes; read-out: IN VITRO ID 50 (nm) HCT116.
With `CC(=O)O[C@@]12CO[C@@H]1C[C@H](O)[C@@]1(C)C(=O)[C@H](OC(=O)C(C)C)C3=C(C)[C@@H](OC(=O)[C@H](O)[C@@H](NC(=O)OC(C)(C)C)c4ccco4)C[C@@](O)([C@@H](OC(=O)c4ccccc4)C12)C3(C)C` (some centres unmarked) [Compound 2269], the IC50 is < 1 nM.
The same measure, in the same setting: in the case of `CC(=O)O[C@@]12CO[C@@H]1C[C@H](O)[C@@]1(C)C(=O)[C@H](OC(=O)C(C)C)C3=C(C)[C@@H](OC(=O)[C@H](O)[C@@H](NC(=O)OC(C)(C)C)c4ccoc4)C[C@@](O)([C@@H](OC(=O)c4ccccc4)C12)C3(C)C` (some centres unmarked) [Compound 2273] it was < 1 nM; in that of `CC(=O)O[C@@]12CO[C@@H]1C[C@H](O)[C@@]1(C)C(=O)[C@H](OC(=O)C(C)C)C3=C(C)[C@@H](OC(=O)[C@H](O)[C@@H](NC(=O)OC(C)(C)C)c4cccs4)C[C@@](O)([C@@H](OC(=O)c4ccccc4)C12)C3(C)C` (some centres unmarked) [Compound 2287], < 1 nM.
`CC(=O)O[C@@]12CO[C@@H]1C[C@H](O)[C@@]1(C)C(=O)[C@H](OC(=O)C(C)C)C3=C(C)[C@@H](OC(=O)[C@H](O)[C@@H](NC(=O)OC(C)(C)C)c4ccsc4)C[C@@](O)([C@@H](OC(=O)c4ccccc4)C12)C3(C)C` (some centres unmarked) [Compound 2291]: the IC50 was < 1 nM.
Still for that read-out and setting: under `CC(=O)O[C@@]12CO[C@@H]1C[C@H](O)[C@@]1(C)C(=O)[C@H](OC(=O)C(C)C)C3=C(C)[C@@H](OC(=O)[C@H](O)[C@@H](NC(=O)OC(C)(C)C)C(C)C)C[C@@](O)([C@@H](OC(=O)c4ccccc4)C12)C3(C)C` (some centres unmarked) [Compound 2306] stands < 10 nM; under `CC(=O)O[C@@]12CO[C@@H]1C[C@H](O)[C@@]1(C)C(=O)[C@H](OC(=O)C(C)C)C3=C(C)[C@@H](OC(=O)[C@H](O)[C@@H](NC(=O)OC(C)(C)C)C4CCC4)C[C@@](O)([C@@H](OC(=O)c4ccccc4)C12)C3(C)C` (some centres unmarked) [Compound 2319], < 10 nM; under `CC(=O)O[C@@]12CO[C@@H]1C[C@H](O)[C@@]1(C)C(=O)[C@H](OC(=O)C(C)C)C3=C(C)[C@@H](OC(=O)[C@H](O)[C@@H](NC(=O)OC(C)(C)C)c4ccc([N+](=O)[O-])cc4)C[C@@](O)([C@@H](OC(=O)c4ccccc4)C12)C3(C)C` (some centres unmarked) [Compound 2320], < 1 nM.
Still for that read-out and setting: under `C/C=C/C(=O)O[C@H]1C(=O)[C@@]2(C)C([C@H](OC(=O)c3ccccc3)[C@]3(O)C[C@H](OC(=O)[C@H](O)[C@H](C=C(C)C)NC(=O)OC(C)(C)C)C(C)=C1C3(C)C)[C@]1(OC(C)=O)CO[C@@H]1C[C@@H]2O` (some centres unmarked) [Compound 2332] stands < 1 nM.
Same read-out and setting: in the case of `C/C=C/C(=O)O[C@H]1C(=O)[C@@]2(C)C([C@H](OC(=O)c3ccccc3)[C@]3(O)C[C@H](OC(=O)[C@H](O)[C@@H](NC(=O)OC(C)(C)C)c4ccccn4)C(C)=C1C3(C)C)[C@]1(OC(C)=O)CO[C@@H]1C[C@@H]2O` (some centres unmarked) [Compound 2348] it was < 1 nM; in that of `C/C=C/C(=O)O[C@H]1C(=O)[C@@]2(C)C([C@H](OC(=O)c3ccccc3)[C@]3(O)C[C@H](OC(=O)[C@H](O)[C@@H](NC(=O)OC(C)(C)C)c4cccnc4)C(C)=C1C3(C)C)[C@]1(OC(C)=O)CO[C@@H]1C[C@@H]2O` (some centres unmarked) [Compound 2353], < 10 nM.
On to `C/C=C/C(=O)O[C@H]1C(=O)[C@@]2(C)C([C@H](OC(=O)c3ccccc3)[C@]3(O)C[C@H](OC(=O)[C@H](O)[C@@H](NC(=O)OC(C)(C)C)c4ccncc4)C(C)=C1C3(C)C)[C@]1(OC(C)=O)CO[C@@H]1C[C@@H]2O` (some centres unmarked) [Compound 2366], for which the IC50 was < 1 nM.
Regarding `C/C=C/C(=O)O[C@H]1C(=O)[C@@]2(C)C([C@H](OC(=O)c3ccccc3)[C@]3(O)C[C@H](OC(=O)[C@H](O)[C@@H](NC(=O)OC(C)(C)C)c4ccco4)C(C)=C1C3(C)C)[C@]1(OC(C)=O)CO[C@@H]1C[C@@H]2O` (some centres unmarked) [Compound 2379], the IC50 is < 1 nM.
For the compound `C/C=C/C(=O)O[C@H]1C(=O)[C@@]2(C)C([C@H](OC(=O)c3ccccc3)[C@]3(O)C[C@H](OC(=O)[C@H](O)[C@@H](NC(=O)OC(C)(C)C)c4ccoc4)C(C)=C1C3(C)C)[C@]1(OC(C)=O)CO[C@@H]1C[C@@H]2O` (some centres unmarked) [Compound 2380], the IC50 was < 1 nM.
Turning to `C/C=C/C(=O)O[C@H]1C(=O)[C@@]2(C)C([C@H](OC(=O)c3ccccc3)[C@]3(O)C[C@H](OC(=O)[C@H](O)[C@@H](NC(=O)OC(C)(C)C)c4cccs4)C(C)=C1C3(C)C)[C@]1(OC(C)=O)CO[C@@H]1C[C@@H]2O` (some centres unmarked) [Compound 2392], the IC50 is < 1 nM.
The same measure, in the same setting: under `C/C=C/C(=O)O[C@H]1C(=O)[C@@]2(C)C([C@H](OC(=O)c3ccccc3)[C@]3(O)C[C@H](OC(=O)[C@H](O)[C@@H](NC(=O)OC(C)(C)C)c4ccsc4)C(C)=C1C3(C)C)[C@]1(OC(C)=O)CO[C@@H]1C[C@@H]2O` (some centres unmarked) [Compound 2408] stands < 1 nM; under `C/C=C/C(=O)O[C@H]1C(=O)[C@@]2(C)C([C@H](OC(=O)c3ccccc3)[C@]3(O)C[C@H](OC(=O)[C@H](O)[C@@H](NC(=O)OC(C)(C)C)C(C)C)C(C)=C1C3(C)C)[C@]1(OC(C)=O)CO[C@@H]1C[C@@H]2O` (some centres unmarked) [Compound 2413], < 10 nM; under `C/C=C/C(=O)O[C@H]1C(=O)[C@@]2(C)C([C@H](OC(=O)c3ccccc3)[C@]3(O)C[C@H](OC(=O)[C@H](O)[C@@H](NC(=O)OC(C)(C)C)C4CCC4)C(C)=C1C3(C)C)[C@]1(OC(C)=O)CO[C@@H]1C[C@@H]2O` (some centres unmarked) [Compound 2424], < 10 nM.
Still for that read-out and setting: in the case of `C/C=C/C(=O)O[C@H]1C(=O)[C@@]2(C)C([C@H](OC(=O)c3ccccc3)[C@]3(O)C[C@H](OC(=O)[C@H](O)[C@@H](NC(=O)OC(C)(C)C)c4ccc([N+](=O)[O-])cc4)C(C)=C1C3(C)C)[C@]1(OC(C)=O)CO[C@@H]1C[C@@H]2O` (some centres unmarked) [Compound 2439] it was < 10 nM; in that of `C/C=C/C(=O)O[C@H]1C(=O)[C@@]2(C)C([C@H](OC(=O)c3ccccc3)[C@]3(O)C[C@H](OC(=O)[C@H](O)[C@@H](NC(=O)OC(C)(C)C)c4ccccc4)C(C)=C1C3(C)C)[C@]1(OC(C)=O)CO[C@@H]1C[C@@H]2O` (some centres unmarked) [Compound 2442], < 1 nM.
Still for that read-out and setting: in the case of `CC(=O)O[C@@]12CO[C@@H]1C[C@H](O)[C@@]1(C)C(=O)[C@H](OC(=O)C=C(C)C)C3=C(C)[C@@H](OC(=O)[C@H](O)[C@H](C=C(C)C)NC(=O)OC(C)(C)C)C[C@@](O)([C@@H](OC(=O)c4ccccc4)C12)C3(C)C` (some centres unmarked) [Compound 2455] it was < 10 nM; in that of `CC(=O)O[C@@]12CO[C@@H]1C[C@H](O)[C@@]1(C)C(=O)[C@H](OC(=O)C=C(C)C)C3=C(C)[C@@H](OC(=O)[C@H](O)[C@@H](NC(=O)OC(C)(C)C)c4ccccn4)C[C@@](O)([C@@H](OC(=O)c4ccccc4)C12)C3(C)C` (some centres unmarked) [Compound 2464], < 1 nM; in that of `CC(=O)O[C@@]12CO[C@@H]1C[C@H](O)[C@@]1(C)C(=O)[C@H](OC(=O)C=C(C)C)C3=C(C)[C@@H](OC(=O)[C@H](O)[C@@H](NC(=O)OC(C)(C)C)c4ccncc4)C[C@@](O)([C@@H](OC(=O)c4ccccc4)C12)C3(C)C` (some centres unmarked) [Compound 2472], < 1 nM.
For the compound `CC(=O)O[C@@]12CO[C@@H]1C[C@H](O)[C@@]1(C)C(=O)[C@H](OC(=O)C=C(C)C)C3=C(C)[C@@H](OC(=O)[C@H](O)[C@@H](NC(=O)OC(C)(C)C)c4ccco4)C[C@@](O)([C@@H](OC(=O)c4ccccc4)C12)C3(C)C` (some centres unmarked) [Compound 2488], the IC50 was < 1 nM.
Same read-out and setting: in the case of `CC(=O)O[C@@]12CO[C@@H]1C[C@H](O)[C@@]1(C)C(=O)[C@H](OC(=O)C=C(C)C)C3=C(C)[C@@H](OC(=O)[C@H](O)[C@@H](NC(=O)OC(C)(C)C)c4ccoc4)C[C@@](O)([C@@H](OC(=O)c4ccccc4)C12)C3(C)C` (some centres unmarked) [Compound 2499] it was < 1 nM.
Still for that read-out and setting: in the case of `CC(=O)O[C@@]12CO[C@@H]1C[C@H](O)[C@@]1(C)C(=O)[C@H](OC(=O)C=C(C)C)C3=C(C)[C@@H](OC(=O)[C@H](O)[C@@H](NC(=O)OC(C)(C)C)c4cccs4)C[C@@](O)([C@@H](OC(=O)c4ccccc4)C12)C3(C)C` (some centres unmarked) [Compound 2503] it was < 1 nM; in that of `CC(=O)O[C@@]12CO[C@@H]1C[C@H](O)[C@@]1(C)C(=O)[C@H](OC(=O)C=C(C)C)C3=C(C)[C@@H](OC(=O)[C@H](O)[C@@H](NC(=O)OC(C)(C)C)c4ccsc4)C[C@@](O)([C@@H](OC(=O)c4ccccc4)C12)C3(C)C` (some centres unmarked) [Compound 2511], < 1 nM; in that of `CC(=O)O[C@@]12CO[C@@H]1C[C@H](O)[C@@]1(C)C(=O)[C@H](OC(=O)C=C(C)C)C3=C(C)[C@@H](OC(=O)[C@H](O)[C@@H](NC(=O)OC(C)(C)C)c4ccccc4)C[C@@](O)([C@@H](OC(=O)c4ccccc4)C12)C3(C)C` (some centres unmarked) [Compound 2520], < 10 nM.
